For test [1], the target named is T1, PDGFR-β (Homo sapiens, UniProt P09619).
T1 construct: host or cells: NIH 3T3
Nature of the test: Biochemical PDGFR assay (ELISA, PDGFR-β expressing NIH 3T3 cell lysate). As to conditions: read-out: bio PDGF IC50. The source says: This assay measures the in vitro kinase activity of PDGFR using ELISA.
Unless otherwise noted, the preparation of working solution-of the following reagents is the same as that for the Biochemical EGFR assay, above. • 1. […] 28D4C10 monoclonal anti-PDGFR antibody (Biochemistry Lab, SUGEN, Inc.). • 3. PBS (Dulbecco's Phosphate-Buffered Saline, Gibco Catalog No. 450-1300EB) • 4. TBST Buffer. • 5. Blocking Buffer. • 6. PDGFR-β expressing NIH 3T3 cell lysate (Screening Lab, SUGEN, Inc.). • 7. TBS Buffer. • 8. TBS+10% DMSO. • 9. […] MnCl2. • 11. Kinase buffer phosphorylation mix.
• 12. NUNC 96-well V bottom polypropylene plates (Applied Scientific Cat. No. AS-72092). • 13. Ethylenediaminetetraacetic acid (EDTA). • 14. Rabbit polyclonal anti-phosphotyrosine serum (Biochemistry Lab, SUGEN, Inc.). • 15. Goat anti-rabbit IgG peroxidase conjugate (Biosource Cat. No. ALI0404). • 16. 2,2′-azino-bis(3-ethylbenzthiazoline-6-sulfonic acid) (ABTS, Sigma Cat. No. A-1888). • 17. Hydrogen peroxide 30% solution (Fisher Cat. No. H325). • 18. ABTS/H2O2. • 19. 0.2 M HCl.
Procedure • 1. Coat Corning 96 well ELISA plates with 0.5 μg 28D4C10 in 100 μl PBS per well, store overnight at 4° C. • 2. Remove unbound 28D4C10 from wells by inverting plate to remove liquid. Wash 1× with dH2O. Pat the plate on a paper towel to remove excess liquid. • 3. Add 150 μl of Blocking Buffer to each well. Incubate for 30 min. at room temperature with shaking. • 4. Wash plate 3× with deionized water, then once with TBST. Pat plate on a paper towel to remove excess liquid and bubbles. • 5. Dilute lysate in HNTG (10 μg lysate/100 μl HNTG) • 6. Add 100 μl of diluted lysate to each well. Shake at room temperature for 60 min. • 7. Wash plates as described in 4, above. • 8. Add 80 μl working kinase buffer mix to ELISA plate containing captured PDGFR. • 9. Dilute test compound 1:10 in TBS in 96-well polypropylene plates (i.e., 10 μl compound+90 μl TBS). • 10. Add 10 μl diluted test compound to ELISA plate. […] Incubate for 30 minutes while shaking at room temperature. • 12. Add 10 μl ATP directly to all wells except negative control well (final well volume should be approximately 100 μl with 20 μM ATP in each well.) Incubate 30 minutes while shaking. • 13. After 30 minutes, stop reaction by adding 10 μl of 200 mM EDTA (pH 8.0) to each well. • 14. Wash 4× with deionized water, twice with TBST. • 15. Add 100 μl anti-phosphotyrosine (1:3000 dilution in TBST) per well. Incubate 30-45 min. at room temperature, with shaking. • 16. Wash as described in 4, above. • 17. Add 100 μl Biosource Goat anti-rabbit IgG peroxidase conjugate (1:2000 dilution in TBST) to each well. Incubate 30 min. at room temperature, with shaking. • 18. Wash as described in 4, above. • 19. Add 100 μl of ABTS/H2O2 solution to each well. • 20. Incubate 10 to 30 minutes with shaking. Remove any bubbles. • 21. If necessary stop reaction with the addition of 100 μl 0.2 M HCl per well. • 22. Read assay on Dynatech MR7000 ELISA reader: test filter: 410 nM, reference filter: 630 nM.

For test [2], the target named is T2, flkGST (Homo sapiens, UniProt P35968).
T2 construct: GST
The test can be described thus: bio flkGST assay. It counts as biochemical.

Test [3] addresses T3, chimeric receptor containing the EGFR extracellular domain and intracellular HER2 kinase domain (Homo sapiens, UniProt P04626).
T3 construct: fused on or other part: EGFR ectodomain + HER2 intracellular part, ATP-site indolinones: HER2's kinase
The test can be described thus: EGF Receptor-HER2 chimeric receptor assay in whole cells (ELISA). It counts as cell-based. As to conditions: read-out: HER-2 kinase IC50. As to the method: EGF Receptor-HER2 Chimeric Receptor Assay In Whole Cells.
HER2 kinase activity in whole EGFR-NIH3T3 cells are measured as described below:
• a. […] 05-101 (UBI) (a monoclonal antibody recognizing an EGFR extracellular domain). • c. Anti-phosphotyrosine antibody (anti-Ptyr) (polyclonal) (see, Fendley, et al., supra). • d. Detection antibody: Goat anti-rabbit IgG horseradish peroxidase conjugate, TAGO, Inc., Burlingame, Calif. • e. TBST buffer:
• h. Stock reagents of:
Pre-coat ELISA Plate • 1. […] Coated plates are good for up to 10 days when stored at 4° C. • 2. On day of use, remove coating buffer and replace with 100 μl blocking buffer (5% Carnation Instant Non-Fat Dry Milk in PBS). Incubate the plate, shaking, at room temperature (about 23° C. to 25° C.) for 30 minutes. Just prior to use, remove blocking buffer and wash plate 4 times with TBST buffer.
Seeding Cells • 1. An NIH3T3 cell line overexpressing a chimeric receptor containing the EGFR extracellular domain and intracellular HER2 kinase domain can be used for this assay. • 2. Choose dishes having 80-90% confluence for the experiment. Trypsinize cells and stop reaction by adding 10% fetal bovine serum. Suspend cells in DMEM medium (10% CS DMEM medium) and centrifuge once at 1500 rpm, at room temperature for 5 minutes. • 3. Resuspend cells in seeding medium (DMEM, 0.5% bovine serum), and count the cells using trypan blue. Viability above 90% is acceptable. Seed cells in DMEM medium (0.5% bovine serum) at a density of 10,000 cells per well, 100 μl per well, in a 96 well microtiter plate. Incubate seeded cells in 5% CO2. at 37° C. for about 40 hours.
Assay Procedures • 1. Check seeded cells for contamination using an inverted microscope. Dilute drug stock (10 mg/ml in DMSO) 1:10 in DMEM medium, then transfer 5 μl to a […] well for a final drug dilution of 1:200 and a final DMSO concentration of 1%. Control wells receive DMSO alone. Incubate in 5% CO2 at 37° C. for two hours. • 2. Prepare EGF ligand: dilute stock EGF in DMEM so that upon transfer of 10 μl dilute EGF (1:12 dilution), 100 nM final concentration is attained. • 3. Prepare fresh HNTG* sufficient for 100 μl per well, and place on ice.
• 4. After 120 minutes incubation with drug, add prepared […] ligand to cells, 10 μl per well, to a final concentration of 100 nM. Control wells receive DMEM alone. Incubate with shaking, at room temperature, for 5 minutes. • 5. Remove drug, EGF, and DMEM. Wash cells twice with PBS. Transfer HNTG* to cells, 100 μl per well. Place on ice for 5 minutes. Meanwhile, remove blocking buffer from other ELISA plate and wash with TBST as described above. • 6. With a pipette tip securely fitted to a micropipettor, scrape cells from plate and homogenize cell material by repeatedly aspirating and dispensing the HNTG* lysis buffer. Transfer lysate to a coated, blocked, and washed ELISA plate. Incubate shaking at room temperature for one hour. • 7. Remove lysate and wash 4 times with TBST. Transfer freshly diluted anti-Ptyr antibody to ELISA plate at 100 μl per well. Incubate shaking at room temperature for 30 minutes in the presence of the anti-Ptyr antiserum (1:3000 dilution in TBST). • 8. Remove the anti-Ptyr antibody and wash 4 times with TBST. Transfer the freshly diluted TAGO anti-rabbit IgG antibody to the ELISA plate at 100 μl per well. Incubate shaking at room temperature for 30 minutes (anti-rabbit IgG antibody: 1:3000 dilution in TBST). • 9. Remove TAGO detection antibody and wash 4 times with TBST. Transfer freshly prepared ABTS/H2O2 solution to ELISA plate, 100 μl per well. Incubate shaking at room temperature for 20 minutes. (ABTS/H2O2 solution: 1.0 μl 30% H2O2 in 10 ml ABTS stock). • 10. Stop reaction by adding 50 μl 5N H2SO4 (optional), and determine O.D. at 410 nm. • 11. The maximal phosphotyrosine signal is determined by subtracting the value of the negative controls from the positive controls. […]

Test [4] addresses EGFR (Homo sapiens, UniProt P00533). Nature of the test: Biochemical EGFR assay (ELISA, A431 cell lysate). Details: A431 cell lysate (Screening Lab, SUGEN, Inc.); host or cells: A431. To be noted: read-out: bio EGFr IC50. The method, then: This assay measures the in vitro kinase activity of EGFR using ELISA.
Materials and Reagents • 1. […] SUMO1 monoclonal anti-EGFR antibody (Biochemistry Lab, SUGEN, Inc.). • 3. PBS (Dulbecco's Phosphate-Buffered Saline, Gibco Catalog No. 450-1300EB). • 4. TBST Buffer
• 6. A431 cell lysate (Screening Lab, SUGEN, Inc.) • 7. TBS Buffer:
Prepare a 1.0 mM solution in dH2O. This reagent should be made up immediately prior to use and kept on ice. • 10. MnCl2.
Prepare a 1.0 M stock solution in dH2O. • 11. ATP/MnCl2 phosphorylation mix
This reagent should be prepared immediately before use and kept on ice. • 12. NUNC 96-well V bottom polypropylene plates (Applied Scientific Cat. No. AS-72092). • 13. Ethylenediaminetetraacetic acid (EDTA)
Prepare 200 mM working solution in dH2O. Adjust to pH 8.0 with 10 N NaOH. • 14. Rabbit polyclonal anti-phosphotyrosine serum (Biochemistry Lab, SUGEN, Inc.) • 15. Goat anti-rabbit IgG peroxidase conjugate (Biosource Cat. No. ALI0404) • 16. ABTS (2,2′-azino-bis(3-ethylbenzthiazoline-6-sulfonic acid), Sigma Cat. No. A-1888).
Mix first two ingredients in about 900 ml dH2O, adjust pH to 4.0 with phosphoric acid. Add ABTS, cover, let sit about 0.5 hr., filter. The solution should be kept in the dark at 4° C. until ready to use. • 17. Hydrogen peroxide 30% solution (Fisher Cat. No. H325) • 18. ABTS/H2O2 • Mix 15 ml ABTS solution and 2.0 μl H2O2. Prepare 5 minutes before use. • 19. 0.2 M HCl
Procedure • 1. Coat Corning 96 well ELISA plates with 0.5 μg SUMO1 in 100 μl PBS per well, store overnight at 4° C. • 2. Remove unbound SUMO1 from wells by inverting plate to remove liquid., Wash 1× with dH2O. Pat the plate on a paper towel to remove excess liquid. • 3. Add 150 μl of Blocking Buffer to each well. Incubate for 30 min. at room temperature with shaking. • 4. Wash plate 3× with deionized water, then once with TBST. Pat plate on a paper towel to remove excess liquid and bubbles. • 5. Dilute lysate in PBS (7 μg lysate/100 μl PBS). • 6. Add 100 μl of diluted lysate to each well. Shake at room temperature for 60 min. • 7. Wash plates as described in 4, above. • 8. Add 120 μl TBS to ELISA plate containing captured EGFR. • 9. Dilute test compound 1:10 in TBS in 96-well polypropylene plates (i.e. 10 μl compound+90 μl TBS). • 10. Add 13.5 μl diluted test compound to ELISA plate. […] Incubate for 30 minutes while shaking at room temperature. • 12. […] After 5 minutes, stop reaction by adding 16.5 μl of 200 mM EDTA (pH 8.0) to each well, shaking continuously. After the EDTA has been added, shake for 1 min. • 14. Wash 4× with deionized water, twice with TBST. • 15. Add 100 μl anti-phosphotyrosine (1:3000 dilution in TBST) per well. Incubate 30-45 min. at room temperature, with shaking. • 16. Wash as described in 4, above. • 17. Add 100 μl Biosource Goat anti-rabbit IgG peroxidase conjugate (1:2000 dilution in TBST) to each well. Incubate 30 min. at room temperature, with shaking. • 18. Wash as described in 4, above. • 19. Add 100 μl of ABTS/H2O2 solution to each well. • 20. Incubate 5 to 10 minutes with shaking. Remove any bubbles. • 21. If necessary stop reaction with the addition of 100 μl 1 0.2 M HCl per well. • 22. Read assay on Dynatech MR7000 ELISA reader. Test Filter: 410 nM Reference Filter: 630 Nm.

T1 sequence (P09619 33-1106): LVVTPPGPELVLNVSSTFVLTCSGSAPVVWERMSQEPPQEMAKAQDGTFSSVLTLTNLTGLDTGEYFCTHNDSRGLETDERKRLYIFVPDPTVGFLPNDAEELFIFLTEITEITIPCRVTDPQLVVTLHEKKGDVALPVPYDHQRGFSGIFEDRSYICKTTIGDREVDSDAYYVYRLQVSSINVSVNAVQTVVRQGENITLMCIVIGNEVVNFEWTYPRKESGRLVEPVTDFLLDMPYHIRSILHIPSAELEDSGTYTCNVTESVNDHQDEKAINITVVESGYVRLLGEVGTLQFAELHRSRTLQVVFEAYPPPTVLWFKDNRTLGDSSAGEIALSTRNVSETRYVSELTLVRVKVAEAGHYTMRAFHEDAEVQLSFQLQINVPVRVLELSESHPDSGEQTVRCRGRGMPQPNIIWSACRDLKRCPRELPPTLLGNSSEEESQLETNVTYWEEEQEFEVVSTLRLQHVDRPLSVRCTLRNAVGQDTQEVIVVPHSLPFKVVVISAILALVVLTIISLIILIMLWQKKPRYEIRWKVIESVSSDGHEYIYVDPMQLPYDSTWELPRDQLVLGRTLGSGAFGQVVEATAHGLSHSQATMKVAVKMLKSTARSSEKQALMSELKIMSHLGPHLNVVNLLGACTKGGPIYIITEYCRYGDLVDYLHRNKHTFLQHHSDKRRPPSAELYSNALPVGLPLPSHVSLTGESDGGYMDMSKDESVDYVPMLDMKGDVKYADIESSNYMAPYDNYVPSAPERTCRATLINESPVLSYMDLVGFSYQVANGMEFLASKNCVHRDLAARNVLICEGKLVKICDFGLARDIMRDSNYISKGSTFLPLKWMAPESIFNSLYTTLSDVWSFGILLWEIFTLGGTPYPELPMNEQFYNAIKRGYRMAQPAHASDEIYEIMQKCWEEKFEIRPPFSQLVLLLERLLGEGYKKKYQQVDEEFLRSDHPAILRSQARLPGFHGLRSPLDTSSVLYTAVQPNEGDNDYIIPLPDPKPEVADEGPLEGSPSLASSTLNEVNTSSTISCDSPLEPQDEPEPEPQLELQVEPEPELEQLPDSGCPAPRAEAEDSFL
T2 sequence (P35968 786-1356 limits assumed): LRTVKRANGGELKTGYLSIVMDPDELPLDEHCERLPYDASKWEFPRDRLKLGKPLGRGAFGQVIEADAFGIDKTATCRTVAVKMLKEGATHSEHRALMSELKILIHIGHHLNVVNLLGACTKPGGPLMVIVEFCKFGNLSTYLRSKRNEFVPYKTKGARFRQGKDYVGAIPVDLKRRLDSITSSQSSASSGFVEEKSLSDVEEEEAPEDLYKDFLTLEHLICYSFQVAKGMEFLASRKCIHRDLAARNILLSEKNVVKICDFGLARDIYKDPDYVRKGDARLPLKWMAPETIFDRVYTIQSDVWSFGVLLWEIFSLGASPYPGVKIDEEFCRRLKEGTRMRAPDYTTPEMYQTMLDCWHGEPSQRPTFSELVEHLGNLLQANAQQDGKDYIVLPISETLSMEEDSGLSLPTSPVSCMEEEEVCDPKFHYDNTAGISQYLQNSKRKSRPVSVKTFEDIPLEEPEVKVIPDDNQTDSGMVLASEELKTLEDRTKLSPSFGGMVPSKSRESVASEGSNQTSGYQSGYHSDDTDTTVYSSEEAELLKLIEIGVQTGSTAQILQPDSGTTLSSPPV
T3 sequence (P04626 720-1255 limits assumed, change not shown): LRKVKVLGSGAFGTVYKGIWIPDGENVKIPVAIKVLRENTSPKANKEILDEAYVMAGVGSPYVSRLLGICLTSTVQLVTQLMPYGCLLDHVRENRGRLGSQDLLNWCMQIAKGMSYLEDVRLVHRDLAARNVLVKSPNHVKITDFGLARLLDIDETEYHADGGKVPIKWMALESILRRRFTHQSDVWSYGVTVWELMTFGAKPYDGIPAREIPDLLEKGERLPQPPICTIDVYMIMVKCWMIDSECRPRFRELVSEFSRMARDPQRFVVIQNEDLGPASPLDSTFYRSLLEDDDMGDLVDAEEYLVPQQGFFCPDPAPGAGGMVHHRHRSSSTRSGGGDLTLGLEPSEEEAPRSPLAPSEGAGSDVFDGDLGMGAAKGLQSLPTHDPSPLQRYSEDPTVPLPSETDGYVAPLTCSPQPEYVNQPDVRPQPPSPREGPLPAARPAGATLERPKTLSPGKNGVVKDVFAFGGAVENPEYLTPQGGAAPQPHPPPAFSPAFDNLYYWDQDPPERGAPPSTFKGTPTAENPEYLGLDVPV
Sequence of EGFR (P00533 25-1210): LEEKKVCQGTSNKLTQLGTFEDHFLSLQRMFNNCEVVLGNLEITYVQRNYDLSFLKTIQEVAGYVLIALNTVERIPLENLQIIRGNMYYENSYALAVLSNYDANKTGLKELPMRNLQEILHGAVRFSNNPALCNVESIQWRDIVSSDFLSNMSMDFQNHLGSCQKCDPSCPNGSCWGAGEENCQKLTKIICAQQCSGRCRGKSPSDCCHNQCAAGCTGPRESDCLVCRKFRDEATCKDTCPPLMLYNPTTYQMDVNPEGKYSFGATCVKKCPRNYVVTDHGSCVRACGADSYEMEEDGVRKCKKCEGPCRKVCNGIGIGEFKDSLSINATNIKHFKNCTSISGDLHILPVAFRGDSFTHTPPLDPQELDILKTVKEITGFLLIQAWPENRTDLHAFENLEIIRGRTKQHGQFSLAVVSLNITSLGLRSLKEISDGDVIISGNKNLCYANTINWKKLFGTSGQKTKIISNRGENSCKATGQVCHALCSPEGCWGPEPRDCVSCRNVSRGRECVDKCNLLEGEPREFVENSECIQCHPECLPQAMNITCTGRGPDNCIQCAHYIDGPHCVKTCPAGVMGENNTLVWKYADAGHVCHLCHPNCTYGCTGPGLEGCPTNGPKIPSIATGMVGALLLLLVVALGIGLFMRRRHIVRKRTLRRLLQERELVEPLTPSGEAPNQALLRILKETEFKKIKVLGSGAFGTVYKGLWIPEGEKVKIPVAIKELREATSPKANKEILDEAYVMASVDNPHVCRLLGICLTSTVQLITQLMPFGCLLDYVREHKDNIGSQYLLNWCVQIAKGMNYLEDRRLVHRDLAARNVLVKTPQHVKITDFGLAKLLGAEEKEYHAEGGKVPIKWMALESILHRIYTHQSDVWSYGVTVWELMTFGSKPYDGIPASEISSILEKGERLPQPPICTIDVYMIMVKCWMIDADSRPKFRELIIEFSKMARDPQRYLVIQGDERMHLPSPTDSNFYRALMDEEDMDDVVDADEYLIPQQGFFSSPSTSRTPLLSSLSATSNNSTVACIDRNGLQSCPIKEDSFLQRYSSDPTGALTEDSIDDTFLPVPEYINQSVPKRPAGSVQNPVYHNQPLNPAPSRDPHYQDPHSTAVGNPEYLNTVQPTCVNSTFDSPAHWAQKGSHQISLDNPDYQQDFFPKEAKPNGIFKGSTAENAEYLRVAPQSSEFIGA

With `CCOC(=O)c1c(C)[nH]c(/C=C2\C(=O)Nc3ccc(S(=O)(=O)NC)cc32)c1CCCN1CCCC1` [Example 126, 2-Methyl-5-(5-methylsulfamoyl-2-oxo-1,2-dihydroindol-3-ylidenemethyl)-4-(3-pyrrolidin-1-ylpropyl)-1H-pyrrole-3-carboxylic acid ethyl ester], the concentration for half-maximal inhibition (IC50) in test [1] was 63300 nM; in test [2], 14.8 µM.
On to `CCOC(=O)c1c(C)[nH]c(/C=C2\C(=O)Nc3ccc(S(N)(=O)=O)cc32)c1CCCN(C)C` [Example 133, 4-(3-Dimethylaminopropyl)-2-methyl-5-(2-oxo-5-sulfamoyl-1,2-dihydroindol-3-ylidenemethyl)-1H-pyrrole-3-carboxylic acid ethyl ester], for which the figures for the IC50 in test [1] and in test [2] were 2690 nM and 8.18 µM, respectively.
The corresponding values for `COc1ccc2c(c1)/C(=C/c1[nH]c3ccccc3c1CCCN(C)C)C(=O)N2` [Example 151, 3-[3-(3-Dimethylaminopropyl)-1H-indol-2-ylmethylene]-5-methoxy-1,3-dihydroindol-2-one] are 650 nM and 0.71 µM.
For `Cc1c(C=C2C(=O)Nc3ccc(S(=O)(=O)N(C)C)cc32)[nH]c2ccccc12` (racemic) [Example 155, 3-(3-Methyl-1H-indol-2-ylmethylene)-2-oxo-2,3-dihydro-1H-indole-5-sulfonic acid dimethylamide], the concentration for half-maximal inhibition (IC50) in test [3] and in test [4] was above 100 µM throughout.

Values taken from patent publication US6855730B2, “3-methylidenyl-2-indolinone modulators of protein kinase” (Sugen, Inc., priority 1998, dated 2005).
